According to patent US9045389B2, “Biphenyl derivatives useful as glucagon receptor antagonists” (Janssen Pharmaceutica NV, priority 2011, dated 2015):

Molecular target: human GCGR (Homo sapiens (Human), UniProt P47871)
Experiment: Cellular functional assay, cAMP readout: glucagon stimulated cAMP in HEK293 cells expressing human GCGR (LANCE TR-FRET)
Assay type: cell-based
Method: IC50 Values in Cellular Functional Assays: cAMP Readout
Full-length human GCGR (Accession Number: NM000160) subcloned into pcDNA3.1 was stably transfected into HEK293 cells (hGluc-1 HEK) and maintained under G418 selection (500 μg/mL). Cell cultures were maintained in DMEM/F12 media supplemented with 10% FBS and 1% GlutaMax. Glucagon stimulated cAMP was quantified using LANCE technology as per manufacturer instructions. On the day of the experiment, spent media was removed and cells were washed with Hank's Buffered Saline solution (HBSS) and cells were harvested with non-enzymatic cell dissociation solution, then washed once with HBSS. Cells were re-suspended in stimulation buffer at a concentration of 0.83×10^6 cells/ml and cAMP detection antibody was added. 6 μl/well of this solution was then dispensed in a 384 well plate (cell density 5000 cells/well). Test compound was serially diluted in DMSO and 50 nl were dispensed on top of the cell solution and allowed to incubate for 30 minutes. 6 μl of a 2× glucagon solution (final concentration in assay 100 pM) was then added and the reaction was terminated after 5 minutes with the addition of detection mix. The resulting mixture was incubated, protected from light for 1.5 h. cAMP levels were quantified by TR-FRET in an EnVision instrument against a known standard. IC50's were generated by using a non-linear regression macro driven in Excel and converted to Ki values.

Chain of human GCGR (P47871 26-477): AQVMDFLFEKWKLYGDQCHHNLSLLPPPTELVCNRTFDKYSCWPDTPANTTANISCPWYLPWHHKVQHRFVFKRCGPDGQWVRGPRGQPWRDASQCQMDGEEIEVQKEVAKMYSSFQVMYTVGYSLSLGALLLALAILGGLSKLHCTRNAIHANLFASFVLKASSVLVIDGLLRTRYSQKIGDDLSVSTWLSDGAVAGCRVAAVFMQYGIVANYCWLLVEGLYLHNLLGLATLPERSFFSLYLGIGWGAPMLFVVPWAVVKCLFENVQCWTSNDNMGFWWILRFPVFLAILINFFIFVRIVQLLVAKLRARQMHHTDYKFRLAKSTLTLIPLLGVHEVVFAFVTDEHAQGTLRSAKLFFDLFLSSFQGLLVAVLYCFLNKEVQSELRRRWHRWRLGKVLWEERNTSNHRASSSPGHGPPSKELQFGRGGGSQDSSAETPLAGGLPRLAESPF

Ki [nM] | SMILES
57 | Cc1cc(Cl)ccc1-c1ccc(NCc2ccc(C(F)(F)F)cc2-c2ccc(C(=O)NCCC(=O)O)cc2)cc1Cl [Compound 1, 3-(2′-(((2,4′-dichloro-2′-methyl-[1,1′-biphenyl]-4-yl)amino)methyl)-5′-(trifluoromethyl)-[1,1′-biphenyl]-4-ylcarboxamido)propanoic acid]
42 | Cc1cc(C(F)(F)F)ccc1-c1ccc(NCc2ccc(C(F)(F)F)cc2-c2ccc(C(=O)NCCC(=O)O)cc2)cc1Cl [Compound 2, 3-(2′-(((2-chloro-2′-methyl-4′-(trifluoromethyl)-[1,1′-biphenyl]-4-yl)amino)methyl)-5′-(trifluoromethyl)-[1,1′-biphenyl]-4-ylcarboxamido)propanoic acid]
67 | O=C(O)CCNC(=O)c1ccc(-c2cc(C(F)(F)F)ccc2CNc2ccc(-c3ccc(C(F)(F)F)cc3Cl)c(Cl)c2)cc1 [Compound 3, 3-(2′-(((2,2′-dichloro-4′-(trifluoromethyl)-[1,1′-biphenyl]-4-yl)amino)methyl)-5′-(trifluoromethyl)-[1,1′-biphenyl]-4-ylcarboxamido)propanoic acid]
150 | O=C(O)CCNC(=O)c1ccc(-c2cc(C(F)(F)F)ccc2CNc2ccc(-c3ccc(Cl)cc3Cl)cc2)cc1 [Compound 4, 3-(2′-(((2′,4′-dichloro-[1,1′-biphenyl]-4-yl)amino)methyl)-5′-(trifluoromethyl)-[1,1′-biphenyl]-4-ylcarboxamido)propanoic acid]
89 | Cc1cc(Cl)ccc1-c1ccc(NCc2ccc(C(F)(F)F)cc2-c2ccc(C(=O)NCCC(=O)O)cc2C)cc1Cl [Compound 5, 3-(2′-(((2,4′-dichloro-2′-methyl-[1,1′-biphenyl]-4-yl)amino)methyl)-2-methyl-5′-(trifluoromethyl)-[1,1′-biphenyl]-4-ylcarboxamido)propanoic acid]
70 | Cc1cc(C(F)(F)F)ccc1-c1ccc(NCc2ccc(C(F)(F)F)cc2-c2ccc(C(=O)NCCC(=O)O)cc2C)cc1Cl [Compound 6, 3-(2′-(((2-chloro-2′-methyl-4′-(trifluoromethyl)-[1,1′-biphenyl]-4-yl)amino)methyl)-2-methyl-5′-(trifluoromethyl)-[1,1′-biphenyl]-4-ylcarboxamido)propanoic acid]
57 | COc1cc(C(F)(F)F)cc(-c2ccc(C(=O)NCCC(=O)O)cc2)c1CNc1ccc(-c2ccc(Cl)cc2)c(Cl)c1 [Compound 15, 3-(2′-(((2,4′-dichloro-[1,1′-biphenyl]-4-yl)amino)methyl)-3′-methoxy-5′-(trifluoromethyl)-[1,1′-biphenyl]-4-ylcarboxamido)propanoic acid]
47 | COc1cc(C(F)(F)F)cc(-c2ccc(C(=O)NCCC(=O)O)cc2)c1CNc1ccc(-c2ccc(C(F)(F)F)cc2Cl)cc1 [Compound 16, 3-(2′-(((2′-chloro-4′-(trifluoromethyl)-[1,1′-biphenyl]-4-yl)amino)methyl)-3′-methoxy-5′-(trifluoromethyl)-[1,1′-biphenyl]-4-ylcarboxamido)propanoic acid]
30 | Cc1cc(C(F)(F)F)ccc1-c1ccc(NCc2c(-c3ccc(C(=O)NCCC(=O)O)cc3)cc(C(F)(F)F)cc2C(C)C)cc1Cl [Compound 17, 3-(2′-(((2-chloro-2′-methyl-4′-(trifluoromethyl)-[1,1′-biphenyl]-4-yl)amino)methyl)-3′-isopropyl-5′-(trifluoromethyl)-[1,1′-biphenyl]-4-ylcarboxamido)propanoic acid]
